{
  "source": "patent US20240325334A1",
  "about": "“COMPOSITION FOR GENERATING NITROGEN MONOXIDE” (SEOUL NATIONAL UNIVERSITY R&DB FOUNDATION, priority 2021, published 2024)",
  "assay": "NO generation experiment: compound reacted with H2O2 in the presence of a catalyst, Griess assay",
  "conditions": "compound 1 mg/ml, PBS pH 5.5, 1 mM H2O2, 37° C., 4 hours",
  "procedure": "Generation of nitric oxide was investigated by reacting the above-described compounds having a structure of\nwith hydrogen peroxide (H2O2) in the presence of a catalyst. After suspending particles including 1 mg/ml of the compound below and the catalyst in a medium composed of 5 ml of PBS at pH 5.5 and hydrogen peroxide (H2O2) at 1 mM concentration, the suspension was subjected to incubation at 37° C. for 4 hours, followed by sampling the supernatant to analyze the NO generation through Griess assay.",
  "data": [
    {"smiles": "N=C(N)NCCC[C@H](NC(=O)OCc1ccccc1)C(=O)O", "note": "[Nα-Benzyloxycarbonyl-L-arginine]", "values": [
      {"measurement": "Concentration of generated NO", "setting": "catalyst Mn-porphyrin 2 mg/ml", "value": 34, "unit": "µM"},
      {"measurement": "Concentration of generated NO", "setting": "catalyst PCN-223-Fe 1 mg/ml", "value": 216, "unit": "µM"}
    ]}
  ]
}
